Test results as given in PMC9403717, “Ruthenium complexes show potent inhibition of AKR1C1, AKR1C2, and AKR1C3 enzymes and anti-proliferative action against chemoresistant ovarian cancer cell line” (Frontiers in Pharmacology, 2022).
Read-outs that look alike come from different tables or passages of the source.

Target: T1, AKR1C3 (Homo sapiens, UniProt P42330)
T1 construct: made in house
T1 sequence (P42330 1-323): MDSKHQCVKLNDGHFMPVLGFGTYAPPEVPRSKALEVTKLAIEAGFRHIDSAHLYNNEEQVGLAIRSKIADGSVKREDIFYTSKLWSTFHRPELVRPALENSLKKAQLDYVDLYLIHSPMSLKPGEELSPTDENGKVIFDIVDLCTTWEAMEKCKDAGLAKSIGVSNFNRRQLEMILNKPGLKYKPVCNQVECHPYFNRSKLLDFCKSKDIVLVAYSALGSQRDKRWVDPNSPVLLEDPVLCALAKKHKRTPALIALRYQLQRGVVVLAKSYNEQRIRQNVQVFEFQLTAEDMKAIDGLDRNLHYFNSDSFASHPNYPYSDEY
Assay: Inhibition of recombinant AKR1C3, oxidation of 1-acenaphthenol, progress-curve analysis
Format: biochemical
Settings: for k+3 / Ki / k+2 / inhibitory effect (in words) / irreversible inhibition (in words): AKR1C3; for k+3: irreversible binding of second inhibitor molecule to E-NADH-I; for fold less efficient inhibition of AKR1C3 compared to AKR1C1: from K3 values; for k+2: irreversible binding of second inhibitor molecule to E-NAD-I
Experimental: To investigate the effect of ten selected ruthenium compounds, we measured their effect on the time course of oxidation of the artificial substrate 1-acenaphtenol by recombinant enzymes AKR1C1–3. The recombinant enzymes AKR1C1–AKR1C3 were prepared as described previously ([Brozic et al., 2006]). Since the artificial substrate is racemic, the oxidation follows a double exponential pattern as described previously ([Traven et al., 2015]). The in vitro catalytic activity of AKR1C1–3 enzymes was determined spectrophotometrically by monitoring the increase in NADH absorbance at 340 nm (ε(λ340) = 6220 M^−1cm^−1) in the presence of the substrate 1-acenaphthenol. Enzymatic reactions (300 µL) were performed in 100 mm potassium phosphate buffer (pH 9.0), 0.005% (v/v) TritonX-114, 5% (v/v) DMSO, containing 2.3 mm NAD^+ and 1-acenaphthenol at final concentrations of 90, 180, and 250 µM for AKR1C1, AKR1C2, and AKR1C3, respectively. A total of 5 µL of a tested compound in DMSO was added to the reaction mixture. The final concentrations of the tested compounds ranged from 1 to 200 μM, depending on the extent of inhibition (Supplementary Data). The reaction was started by adding 15 µL of AKR1C1, AKR1C2, or AKR1C3 dissolved in 1x PBS (pH 7.3) at final concentrations of 0.11, 0.16, and 1.5 µM, respectively. AKR1C1–3 activity was measured at 37°C for 3 h without shaking using a PowerWave XS microplate reader (Biotek; Winooski, VT, United States). Measurements at seven different concentrations were performed in duplicates or triplicates (Supplementary Figures S2). To mechanistically explain all the obtained progress curves for each ruthenium complex on each enzyme by a common reaction scheme, we extended the originally proposed scheme so that the interaction of the ruthenium complex with apo- and holoenzyme was allowed to be rapid and followed by a slow irreversible association of a second ruthenium complex molecule. However, the affinity of the Ru complexes for the apoenzymes was much lower so this part was excluded from the proposed kinetic model for clarity (Figure 4).
FIGURE 4 Reaction scheme for the oxidation of 1-acenaphtenol by AKR1C1-3 and its inhibition by ruthenium compounds. E represents apoenzyme, E-NAD and E-NADH represent holoenzyme with bound NAD^+ and NADH, respectively. A and B are enantiomers of substrate 1-acenaphtenol. Symbols which include I (ruthenium compound) represent holoenzyme in complex with one or two inhibitor molecules. KNAD, KNADH, and K2-3 are equilibrium constants and k+2–3 are second-order association rate constants for the binding of the second inhibitor molecule to the enzyme. The progress curves for each enzyme in the presence of ruthenium complexes were analyzed by the WEB server ENZO (https://enzo.cmm.ki.si/) designed exactly for such purposes ([Bevc et al., 2011]).

[1] = reversible binding to holoenzyme E-NAD, read-out: K2
[2] = reversible binding to holoenzyme E-NADH, read-out: K3

| Structure (SMILES) | k+3 [M⁻¹ s⁻¹] | Ki [1] [µM] | Ki [2] [µM] | fold less efficient inhibition of AKR1C3 compared to AKR1C1 [fold] | k+2 [M⁻¹ s⁻¹] | inhibitory effect (in words) | irreversible inhibition (in words) |
| --- | --- | --- | --- | --- | --- | --- | --- |
| Cc1ccc(C(C)C)cc1.O=C(C=C([O][Ru][Cl])c1ccc(I)cc1)C(F)(F)F [Compound 1] | 0.9 | 105 | 0.163 | 7.6 |  |  |  |
| C1N2CN3CN1CP(C2)C3.Cc1ccc(C(C)C)cc1.F[P-](F)(F)(F)(F)F.O=C(C=C([O][Ru+])c1ccc(I)cc1)C(F)(F)F [Compound 2] |  | 116 |  |  | 5.3 |  |  |
| CN(C)c1ccc(C(=CC(=O)C(F)(F)F)[O][Ru][Cl])cc1.Cc1ccc(C(C)C)cc1 [Compound 3, (η^6-p-cymene)chlorido(4,4,4-trifluoro-1-(4-(dimethylamino)phenyl)-1,3-butandionato)ruthenium(II)] | 1.2 | 179 | 0.306 | 7.1 | 10.2 |  |  |
| Cc1ccc(C(C)C)cc1.O=C(C=C([O][Ru][Cl])c1ccc2c(c1)OCO2)C(F)(F)F [Compound 5] | 0.5 |  | 0.15 | 6.3 |  |  |  |
| C1N2CN3CN1CP(C2)C3.Cc1ccc(C(C)C)cc1.F[P-](F)(F)(F)(F)F.O=C(C=C([O][Ru+])c1ccc2c(c1)OCO2)C(F)(F)F [Compound 6] |  | 92.7 |  |  | 90 |  |  |
| Cc1ccc(C(C)C)cc1.[Cl-].[O-]c1c(I)cc(Cl)c2cccnc12.[Ru+2] [Compound 7] |  |  |  |  |  | Almost no inhibition |  |
| Cc1ccc(C(C)C)cc1.O=[N+]([O-])c1ccc([O][Ru][Cl])c2ncccc12 [Compound 9, (η ^6-p-Cymene) (nitroxolinato)chloridoruthenium (II)] |  | 439 |  |  |  | very weak inhibitory effect | virtually no irreversible inhibition |
| C1N2CN3CN1CP(C2)C3.Cc1ccc(C(C)C)cc1.F[P-](F)(F)(F)(F)F.O=[N+]([O-])c1ccc([O][Ru+])c2ncccc12 [Compound 10, (η ^6-p-cymene)(nitroxolinato)(pta)ruthenium(II) hexafluorophosphate] |  | 561 |  |  |  | Almost no inhibition | no irreversible inhibition |
